The values that follow come from patent US10251394B2, “Molecules having pesticidal utility, and intermediates, compositions, and processes, related thereto” (Dow AgroSciences LLC, priority 2016, dated 2019).

The term mortality denotes the share of the test organisms that died.

In assay [1] the test system is Cabbage Looper (Trichoplusia ni). The experiment in a line: Bioassay on Cabbage Looper (CL), 128-well diet tray assay. Format: in vivo. The following applies: for mortality at 0.05 µg/cm2 / mortality at 0.5 µg/cm2 / mortality at 5 µg/cm2: 168 h, second instar larvae, five to seven days, read-out: CL Percent control (or mortality); for mortality at 0.05 µg/cm2: 0.05 μg/cm^2 on artificial diet; for mortality at 0.5 µg/cm2: 0.5 μg/cm^2 on artificial diet; for mortality at 5 µg/cm2: 5 μg/cm^2 on artificial diet; for pest or weed control at 50 µg/cm2: Cabbage Looper, Table ABC, read-out: CL rating. The method, then:
(§1) Example A: Bioassays on Beet Armyworm (Spodoptera Exigua, LAPHEG) (“BAW”), Corn Earworm (Helicoverpa Zea, HELIZE) (“CEW”), and Cabbage Looper (Trichoplusia Ni, TRIPNI) (“CL”)
(§2) Certain molecules disclosed in this document were tested against BAW, CEW, and CL using procedures described in the following examples. In the reporting of the results, the “BAW, CEW, & CL Rating Table” was used (See Table Section).
Bioassays on CL were conducted using a 128-well diet tray assay. One to five second instar CL larvae were placed in each well (3 mL) of the diet tray that had been previously filled with 1 mL of artificial diet to which 50 μg/cm^2 of the test molecule (dissolved in 50 μL of 90:10 acetone-water mixture) had been applied (to each of eight wells) and then allowed to dry. Trays were covered with a clear self-adhesive cover and held at 25° C., 14:10 light-dark for five to seven days. Percent mortality was recorded for the larvae in each well; activity in the eight wells was then averaged. The results are indicated in the table entitled “Table ABC: Biological Results” (See Table Section).
(§3) Bioassays on BAW and CL were conducted according to the procedures outlined in Example A: Bioassays on Beet Armyworm (“BAW”) and Cabbage Looper (“CL”) using the indicated concentrations.

Assay [2] relates to Beet Armyworm (Spodoptera exigua). Briefly: Bioassay on Beet Armyworm (BAW), 128-well diet tray assay. The format is in vivo. To be noted: for mortality at 0.05 µg/cm2 / mortality at 0.5 µg/cm2 / mortality at 5 µg/cm2: 168 h, second instar larvae, five to seven days, read-out: BAW Percent control (or mortality); for mortality at 0.05 µg/cm2: 0.05 μg/cm^2 on artificial diet; for mortality at 0.5 µg/cm2: 0.5 μg/cm^2 on artificial diet; for mortality at 5 µg/cm2: 5 μg/cm^2 on artificial diet; for pest or weed control at 50 µg/cm2: Beet Armyworm, Table ABC, read-out: BAW rating. Here is the method:
as §1, §2
Bioassays on BAW were conducted using a 128-well diet tray assay. One to five second instar BAW larvae were placed in each well (3 mL) of the diet tray that had been previously filled with 1 mL of artificial diet to which 50 μg/cm^2 of the test molecule (dissolved in 50 μL of 90:10 acetone-water mixture) had been applied (to each of eight wells) and then allowed to dry. Trays were covered with a clear self-adhesive cover and held at 25° C., 14:10 light-dark for five to seven days. Percent mortality was recorded for the larvae in each well; activity in the eight wells was then averaged. The results are indicated in the table entitled “Table ABC: Biological Results” (See Table Section).
as §3

Consider `O=C(CNC(=O)c1ccc(/C(F)=C/C(c2cc(Cl)c(Cl)c(Cl)c2)C(F)(F)F)cc1C(F)(F)F)NCC(F)(F)F` (stereo not drawn) [F1, (Z)—N-(2-oxo-2-((2,2,2-trifluoroethyl)amino)ethyl)-4-(1,4,4,4-tetrafluoro-3-(3,4,5-trichlorophenyl)but-1-en-1-yl)-2-(trifluoromethyl)benzamide], for which, in assay [1], the mortality at 0.05 µg/cm2 worked out at 100%, the mortality at 0.5 µg/cm2 worked out at 100%, the mortality at 5 µg/cm2 was 100% and the pest or weed control at 50 µg/cm2 was in the range of 50 to 100%. Besides, in assay [2], the mortality at 0.05 µg/cm2 stood at 100%, the mortality at 0.5 µg/cm2 is 100%, the mortality at 5 µg/cm2 amounted to 100% and the pest or weed control at 50 µg/cm2 was 50 to 100%.

As for `C[C@@H](NC(=O)c1ccc(/C(F)=C/C(c2cc(Cl)c(Cl)c(Cl)c2)C(F)(F)F)cc1C(F)(F)F)C(=O)NCC(F)(F)F` (stereo partly drawn) [F2, N—((R)-1-Oxo-1-((2,2,2-trifluoroethyl)amino)propan-2-yl)-4-((Z)-1,4,4,4-tetrafluoro-3-(3,4,5-trichlorophenyl)but-1-en-1-yl)-2-(trifluoromethyl)benzamide], in assay [1], the mortality at 0.05 µg/cm2 was found to be 100%, the mortality at 0.5 µg/cm2 is 100%, the mortality at 5 µg/cm2 came to 100% and the pest or weed control at 50 µg/cm2 was 50 to 100%. Besides, in assay [2], the mortality at 0.05 µg/cm2 was found to be 100%, the mortality at 0.5 µg/cm2 came out at 100%, the mortality at 5 µg/cm2 amounted to 100% and the pest or weed control at 50 µg/cm2 fell in the range of 50 to 100%.

As to `O=C(NC1(C(=O)NCCC2CC2)CC1)c1ccc(/C(F)=C/C(c2cc(Cl)c(Cl)c(Cl)c2)C(F)(F)F)cc1C(F)(F)F` (stereo not drawn) [F4, (Z)—N-(1-((2-cyclopropylethyl)carbamoyl)cyclopropyl)-4-(1,4,4,4-tetrafluoro-3-(3,4,5-trichlorophenyl)but-1-en-1-yl)-2-(trifluoromethyl)benzamide], the pest or weed control at 50 µg/cm2 in assay [1] and in assay [2] was 50 to 100% in each case.

With `C=CCNC(=O)C1(NC(=O)c2ccc(/C(F)=C/C(c3cc(Cl)c(Cl)c(Cl)c3)C(F)(F)F)cc2C(F)(F)F)CC1` (stereo not drawn) [F5, (Z)—N-(1-(Allylcarbamoyl)cyclopropyl)-4-(1,4,4,4-tetrafluoro-3-(3,4,5-trichlorophenyl)but-1-en-1-yl)-2-(trifluoromethyl)benzamide], the pest or weed control at 50 µg/cm2 in assay [1] and in assay [2] was 50 to 100% throughout.

As for `Cc1cc(/C(F)=C/C(c2cc(Cl)c(Cl)c(Cl)c2)C(F)(F)F)ccc1C(=O)NCC(=O)NCC(F)(F)F` (stereo not drawn) [F6, (Z)-2-Methyl-N-(2-oxo-2-((2,2,2-trifluoroethyl)amino)ethyl)-4-(1,4,4,4-tetrafluoro-3-(3,4,5-trichlorophenyl)but-1-en-1-yl)benzamide], in assay [1], the mortality at 0.05 µg/cm2 is 100%, the mortality at 0.5 µg/cm2 turned out to be 100% and the pest or weed control at 50 µg/cm2 is 50 to 100%. Further, in assay [2], the mortality at 0.05 µg/cm2 was 100%, the mortality at 0.5 µg/cm2 was 100% and the pest or weed control at 50 µg/cm2 was in the range of 50 to 100%.

For `Cc1cc(/C(F)=C/C(c2cc(Cl)c(Cl)c(Cl)c2)C(F)(F)F)ccc1C(=O)N[C@H](C)C(=O)NCC(F)(F)F` (stereo partly drawn) [F7, 2-Methyl-N—((R)-1-oxo-1-((2,2,2-trifluoroethyl)amino)propan-2-yl)-4-((Z)-1,4,4,4-tetrafluoro-3-(3,4,5-trichlorophenyl)but-1-en-1-yl)benzamide], in assay [1], the mortality at 0.05 µg/cm2 is 100%, the mortality at 0.5 µg/cm2 was determined as 100% and the pest or weed control at 50 µg/cm2 is 50 to 100%. In assay [2], the mortality at 0.05 µg/cm2 was found to be 100%, the mortality at 0.5 µg/cm2 turned out to be 100% and the pest or weed control at 50 µg/cm2 lay in the range of 50 to 100%.

As for `Cc1cc(/C(F)=C/C(c2cc(Cl)c(Cl)c(Cl)c2)C(F)(F)F)ccc1C(=O)NC1(C(=O)NCC(F)(F)F)CC1` (stereo not drawn) [F8, (Z)-2-Methyl-4-(1,4,4,4-tetrafluoro-3-(3,4,5-trichlorophenyl)but-1-en-1-yl)-N-(1-((2,2,2-trifluoroethyl)carbamoyl)cyclopropyl)benzamide], the pest or weed control at 50 µg/cm2 in assay [1] and in assay [2] was 50 to 100% in each case.

As for `C=CCNC(=O)C1(NC(=O)c2ccc(/C(F)=C/C(c3cc(Cl)c(Cl)c(Cl)c3)C(F)(F)F)cc2C)CC1` (stereo not drawn) [F9, (Z)—N-(1-(Allylcarbamoyl)cyclopropyl)-2-methyl-4-(1,4,4,4-tetrafluoro-3-(3,4,5-trichlorophenyl)but-1-en-1-yl)benzamide], the pest or weed control at 50 µg/cm2 in assay [1] and in assay [2] was 50 to 100% each time.

As to `Cc1cc(/C(F)=C/C(c2cc(Cl)c(Cl)c(Cl)c2)C(F)(F)F)ccc1C(=O)NC1(C(=O)NCCC2CC2)CC1` (stereo not drawn) [F10, (Z)—N-(1-((2-Cyclopropylethyl)carbamoyl)cyclopropyl)-2-methyl-4-(1,4,4,4-tetrafluoro-3-(3,4,5-trichlorophenyl)but-1-en-1-yl)benzamide], the pest or weed control at 50 µg/cm2 in assay [1] and in assay [2] was 50 to 100% each time.

With `C=CCNC(=O)[C@@H](C)NC(=O)c1ccc(/C(F)=C/C(c2cc(Cl)c(Cl)c(Cl)c2)C(F)(F)F)cc1C(F)(F)F` (stereo partly drawn) [F11, N—((R)-1-(Allylamino)-1-oxopropan-2-yl)-4-((Z)-1,4,4,4-tetrafluoro-3-(3,4,5-trichlorophenyl)but-1-en-1-yl)-2-(trifluoromethyl)benzamide], the pest or weed control at 50 µg/cm2 in assay [1] and in assay [2] was 50 to 100% in each case.

For the compound `C[C@@H](NC(=O)c1ccc(/C(F)=C/C(c2cc(Cl)c(Cl)c(Cl)c2)C(F)(F)F)cc1C(F)(F)F)C(=O)NCCC1CC1` (stereo partly drawn) [F12, N—((R)-1-((2-Cyclopropylethyl)amino)-1-oxopropan-2-yl)-4-((Z)-1,4,4,4-tetrafluoro-3-(3,4,5-trichlorophenyl)but-1-en-1-yl)-2-(trifluoromethyl)benzamide], the pest or weed control at 50 µg/cm2 in assay [1] and in assay [2] was 50 to 100% each time.

In the case of `C[C@@H](NC(=O)c1ccc(/C(F)=C/C(c2cc(Cl)c(Cl)c(Cl)c2)C(F)(F)F)cc1C(F)(F)F)C(=O)N(C)CC(F)(F)F` (stereo partly drawn) [F13, N—((R)-1-(Methyl(2,2,2-trifluoroethyl)amino)-1-oxopropan-2-yl)-4-((Z)-1,4,4,4-tetrafluoro-3-(3,4,5-trichlorophenyl)but-1-en-1-yl)-2-(trifluoromethyl)benzamide], the pest or weed control at 50 µg/cm2 in assay [1] and in assay [2] was 50 to 100% in each case.

Turning to `C=CCNC(=O)[C@@H](C)NC(=O)c1ccc(/C(F)=C/C(c2cc(Cl)c(Cl)c(Cl)c2)C(F)(F)F)cc1C` (stereo partly drawn) [F14, N—((R)-1-(Allylamino)-1-oxopropan-2-yl)-2-methyl-4-((Z)-1,4,4,4-tetrafluoro-3-(3,4,5-trichlorophenyl)but-1-en-1-yl)benzamide], the pest or weed control at 50 µg/cm2 in assay [1] and in assay [2] was 50 to 100% throughout.

Consider `Cc1cc(/C(F)=C/C(c2cc(Cl)c(Cl)c(Cl)c2)C(F)(F)F)ccc1C(=O)N[C@H](C)C(=O)NCCC1CC1` (stereo partly drawn) [F15, N—((R)-1-((2-Cyclopropylethyl)amino)-1-oxopropan-2-yl)-2-methyl-4-((Z)-1,4,4,4-tetrafluoro-3-(3,4,5-trichlorophenyl)but-1-en-1-yl)benzamide], for which the pest or weed control at 50 µg/cm2 in assay [1] and in assay [2] was 50 to 100% in each case.
